{"source": "patent US9738591B2", "about": "“Antimicrobial compounds” (priority 2009, dated 2017)", "key": {"[1]": {"test_system": "Stenotrophomonas maltophilia M2495", "test": "Disk diffusion", "assay_type": "cell-based", "conditions": "10 mg/ml, 20 μl, strain M2495"}, "[2]": {"test_system": "Vibrio cholerae (non-toxigenic) M3695", "test": "Disk diffusion", "assay_type": "cell-based", "conditions": "10 mg/ml, 20 μl, (other strain?)"}, "[3]": {"test_system": "Streptococcus pneumoniae strain 12213", "test": "Disk diffusion", "assay_type": "cell-based", "conditions": "10 mg/ml, 20 μl"}, "[4]": {"test_system": "S. aureus ATCC 29213", "test": "MIC and MBC by broth microdilution", "assay_type": "cell-based", "conditions": "Staphylococcus aureus, ATCC29213, CA-MHB, two independent replicates", "protocol": "(§1) The method used was based on CLSI protocols for broth microdilution testing of these species. As recommended by CLSI, inocula were prepared by direct colony suspension, and the media used were cation-adjusted Mueller Hinton broth (CA-MHB) for Staphylococcus spp. and CA-MHB containing 5% lysed horse blood (CA-MHB+LHB) for Streptococcus spp. Briefly, 24 h blood agar plate (BA) cultures of Staphylococcus aureus strains NCTC 6571, ATCC 29213, ATCC 33592 (MRSA) and NCTC 10442 (MRSA), Staphylococcus epidermidis ATCC 29971, Staphylococcus xylosus ATCC 29971, Streptococcus pneumoniae strains ATCC 49619 and ATCC 6305, and Streptococcus pyogenes strains NCTC 8191 and NCTC 8302 were used to prepare 0.5 McFarland suspensions in saline. Two 640 μg/ml working stocks of TSB007 were prepared from a fresh master stock, one in CA-MHB for testing against the Staphylococcus spp. and the other in CA-MHB+LHB for testing against Streptococcus spp. The working stocks were further diluted 1/10 in these broths for adding to microtitre trays to test MICs of 32, 16, 8, 4, 2, 1, 0.5, 0.25, 0.125 and 0.06 μg/ml.\n(§2) The wells of two 96-well microtitre trays (one for Staphylococcus spp. and one for Streptococcus spp.) were filled with 100 μl of the appropriate broth, except for the first column. The last column, a sterility control containing no TSB007 or inoculum, was filled with an additional 100 μl broth. Then 100 μl of the 64 μg/ml TSB007 solution was added to the first two columns, the contents of column 2 was mixed, then 100 μl of this was used in two-fold serial dilutions along the rest of the tray except the last two columns. The final 100 μl was discarded. […] Finally, to the first 11 wells of one row per strain, 100 μl of a 10^−2 dilution (in the appropriate broth) of the 0.5 McFarland suspension was added. The microtitre trays were then incubated at 35° C. for 24 h before the MICs were read visually. Wells were further subcultured (10 μl drop onto BA then incubated at 35° C. for 24 h) and colonies subsequently counted to determine minimum bactericidal concentrations (MBCs). The concentration of the initial inoculum was confirmed on BA by counting colonies from 2×10 μl spots of 10^−5 dilutions of the 0.5 McFarland suspensions. Testing was performed on two separate occasions."}, "[5]": {"test_system": "S. aureus ATCC 33592 (MRSA)", "test": "MIC and MBC by broth microdilution", "assay_type": "cell-based", "conditions": "Staphylococcus aureus, CA-MHB, two independent replicates", "protocol": "as §1, §2"}, "[6]": {"test_system": "S. aureus NCTC 10442 (MRSA)", "test": "MIC and MBC by broth microdilution", "assay_type": "cell-based", "conditions": "Staphylococcus aureus, CA-MHB, two independent replicates", "protocol": "as §1, §2"}, "[7]": {"test_system": "S. aureus NCTC 6571", "test": "MIC and MBC by broth microdilution", "assay_type": "cell-based", "conditions": "Staphylococcus aureus, NCTC6571, CA-MHB, two independent replicates", "protocol": "as §1, §2"}, "[8]": {"test_system": "S. pneumoniae ATCC 49619", "test": "MIC and MBC by broth microdilution", "assay_type": "cell-based", "conditions": "Streptococcus pneumoniae, ATCC49619, CA-MHB+LHB, two independent replicates", "protocol": "as §1, §2"}, "[9]": {"test_system": "S. pneumoniae ATCC 6305", "test": "MIC and MBC by broth microdilution", "assay_type": "cell-based", "conditions": "Streptococcus pneumoniae, ATCC6305, CA-MHB+LHB, two independent replicates", "protocol": "as §1, §2"}, "[10]": {"test_system": "S. pyogenes NCTC 8191", "test": "MIC and MBC by broth microdilution", "assay_type": "cell-based", "conditions": "Streptococcus pyogenes, NCTC8191, CA-MHB+LHB, two independent replicates", "protocol": "as §1, §2"}, "[11]": {"test_system": "S. pyogenes NCTC 8302", "test": "MIC and MBC by broth microdilution", "assay_type": "cell-based", "conditions": "Streptococcus pyogenes, NCTC8302, CA-MHB+LHB, two independent replicates", "protocol": "as §1, §2"}, "[12]": {"test_system": "S. xylosus ATCC 29971", "test": "MIC and MBC by broth microdilution", "assay_type": "cell-based", "conditions": "Staphylococcus xylosus, ATCC29971, CA-MHB, two independent replicates", "protocol": "as §1, §2"}, "[13]": {"test_system": "Escherichia coli NCTC 10538", "test": "Disk diffusion", "conditions": "10 mg/ml, 20 μl; repeat; value printed with '?'"}, "[14]": {"test_system": "Listeria monocytogenes NCTC 7973", "test": "Disk diffusion", "conditions": "10 mg/ml, 20 μl"}, "[15]": {"test_system": "Staphylococcus aureus NCTC 6571/ATCC 9144", "test": "Disk diffusion", "conditions": "for zone of inhibition at 10000 µg/mL: Staphylococcus aureus"}, "[16]": {"test_system": "Streptococcus pneumoniae ATCC 49619", "test": "Disk diffusion", "conditions": "10 mg/ml, 20 μl, Mueller Hinton + Blood & Incubated in 5% CO2"}, "[17]": {"test_system": "S. typhimurium TA98, TA100 and TA1535", "test": "Ames Test for mutagenic activity, no metabolic activation", "conditions": "for Number of colonies: duplicate plates"}}, "note": "“And” between values parts separate entries of the source, which are not always exact repeats. Identical values can stand only once. Like-named read-outs stand apart in the source and are kept apart here.", "data": [{"smiles": "O=C(O)c1ccc(/C=C/c2cc(/C=C/c3ccc(C(=O)O)cc3)cc(/C=C/c3ccc(C(=O)O)cc3)c2)cc1", "note": "[TSB007]", "values": [{"measurement": "Zone diameters, Repeat Results", "setting": "[1]", "result": 9, "unit": "trim"}, {"measurement": "Zone diameters, Repeat Results", "setting": "[2]", "result": 7, "unit": "trim"}, {"measurement": "Zone diameters, Repeat Results", "setting": "[3]", "result": 26, "unit": "trim"}, {"measurement": "MIC", "setting": "[4]; 35° C., 24 h", "result": 4, "unit": "mg/L"}, {"measurement": "MBC", "setting": "[4]", "result": "> 32", "unit": "mg/L"}, {"measurement": "MIC", "setting": "[5]; 35° C., 24 h", "result": "2 to 4", "unit": "mg/L"}, {"measurement": "MBC", "setting": "[5]", "result": "> 32", "unit": "mg/L"}, {"measurement": "MIC", "setting": "[6]; 35° C., 24 h", "result": "2 to 4", "unit": "mg/L"}, {"measurement": "MBC", "setting": "[6]", "result": "> 32", "unit": "mg/L"}, {"measurement": "MIC", "setting": "[7]; 35° C., 24 h", "result": "2 to 4", "unit": "mg/L"}, {"measurement": "MBC", "setting": "[7]", "result": "> 32", "unit": "mg/L"}, {"measurement": "MIC", "setting": "[8]; 35° C., 24 h", "result": 32, "unit": "mg/L"}, {"measurement": "MBC", "setting": "[8]", "result": "> 32", "unit": "mg/L"}, {"measurement": "MIC", "setting": "[9]; 35° C., 24 h", "result": "> 32", "unit": "mg/L"}, {"measurement": "MBC", "setting": "[9]", "result": "> 32", "unit": "mg/L"}, {"measurement": "MIC", "setting": "[10]; 35° C., 24 h", "result": "> 32", "unit": "mg/L"}, {"measurement": "MBC", "setting": "[10]", "result": "> 32", "unit": "mg/L"}, {"measurement": "MIC", "setting": "[11]; 35° C., 24 h", "result": "> 32", "unit": "mg/L"}, {"measurement": "MBC", "setting": "[11]", "result": "> 32", "unit": "mg/L"}, {"measurement": "MIC", "setting": "[12]; 35° C., 24 h", "result": "8 to 16", "unit": "mg/L"}, {"measurement": "MBC", "setting": "[12]", "result": "8 to 16", "unit": "mg/L"}, {"measurement": "Zone diameters, Repeat Results", "setting": "[13]", "result": "7.5? trim"}, {"measurement": "Zone diameters, 24 h TSB007", "setting": "[14]; 24 h", "result": 9, "unit": "trim"}, {"measurement": "Zone diameters, 48 h TSB007", "setting": "[14]; 48 h", "result": 9, "unit": "trim"}, {"measurement": "Zone diameters, Repeat Results", "setting": "[14]; repeat, value printed with '?'", "result": "15? trim"}, {"measurement": "Zone diameters, 24 h TSB007", "setting": "[15]; 10 mg/ml, 20 μl, 24 h", "result": 20, "unit": "trim"}, {"measurement": "Zone diameters, 48 h TSB007", "setting": "[15]; 10 mg/ml, 20 μl, 48 h", "result": 9, "unit": "trim"}, {"measurement": "Zone diameters, 48 h O2", "setting": "[15]; 10 mg/ml, 20 μl, 48 h, incubated aerobically", "result": "No zone"}, {"measurement": "Zone diameters, Repeat Results", "setting": "[15]; 10 mg/ml, 20 μl, repeat", "result": 21, "unit": "trim"}, {"measurement": "zone of inhibition at 10000 µg/mL", "setting": "[15]; ATCC9144|NCTC6571, 24 h, read-out: Zone diameters, 24 h AnO2", "result": 18, "unit": "mm"}, {"measurement": "zone of inhibition at 10000 µg/mL", "setting": "[15]; ATCC9144|NCTC6571, 24 h, read-out: Zone diameters, 24 h O2", "result": 14, "unit": "mm"}, {"measurement": "zone of inhibition at 10000 µg/mL", "setting": "[15]; ATCC9144|NCTC6571, 48 h, read-out: Zone diameters, 48 h AnO2", "result": 18, "unit": "mm"}, {"measurement": "Zone diameters, 24 h TSB007", "setting": "[16]; 24 h", "result": 16, "unit": "trim"}, {"measurement": "Zone diameters, 48 h TSB007", "setting": "[16]; 48 h", "result": 16, "unit": "trim"}, {"measurement": "Ames Test result", "setting": "[17]; 100, 300 and 1000 μg/plate, TA98, TA100, TA1535, no metabolic activation", "result": "negative"}, {"measurement": "Number of colonies", "setting": "[17]; TA98, 100 μg/plate, negative control 14, 12", "result": "16 and 13"}, {"measurement": "Number of colonies", "setting": "[17]; TA98, 300 μg/plate, negative control 14, 12", "result": 11}, {"measurement": "Number of colonies", "setting": "[17]; TA98, 1000 μg/plate, negative control 14, 12", "result": "3 and 2"}, {"measurement": "Number of colonies", "setting": "[17]; TA100, 100 μg/plate, negative control 113, 96", "result": "111 and 92"}, {"measurement": "Number of colonies", "setting": "[17]; TA100, 300 μg/plate, negative control 113, 96", "result": "110 and 105"}, {"measurement": "Number of colonies", "setting": "[17]; TA100, 1000 μg/plate, negative control 113, 96", "result": "88 and 89"}, {"measurement": "Number of colonies", "setting": "[17]; TA1535, 100 μg/plate, negative control 28, 29", "result": "17 and 29"}, {"measurement": "Number of colonies", "setting": "[17]; TA1535, 300 μg/plate, negative control 28, 29", "result": "16 and 24"}, {"measurement": "Number of colonies", "setting": "[17]; TA1535, 1000 μg/plate, negative control 28, 29", "result": 0}]}]}
